# Assay: Human HepG2 cell viability assay in 384 well format
# Type: toxicity, cell-based
# Parameters: dose 125 nL, time 70.5 hour; concentration not given beside the values
# Details: HepG2 cells, read-out: Inhibition
row,Compound,cytotoxicity at 70.5 h [%]
1,COc1cccc(CNCC2CN(C)CCO2)c1 (configuration not stated),-7.17
2,COCCCN(C)c1ncccc1I,8.68
3,Cc1nnc(NCCc2coc(-c3ccc(F)cc3)n2)c(C#N)c1C,-13.9
4,Cc1nc(CN2CCN(C3CCOC3)Cc3cccnc32)cs1 (configuration not stated),-0.337
5,O=C(c1ccc2cc[nH]c2c1)N1CCC(Nc2cccnn2)CC1,-4.46
6,CCc1nc(CC(=O)N2CCN(c3cnccn3)CC2)cs1,-0.0277
7,O=C(CCc1cccnc1)N1CCC2(CCN(CC3CCCC3)C2)C1 (configuration not stated),23.3
8,CCN(C)C(=O)[C@H]1C[C@@](CC(C)C)(C(=O)OC)N(C)[C@H]1c1cccnc1,-3.05
9,CCN1CCNC(=O)C12CCN(C(=O)Cc1ccccn1)CC2,-1.44
10,CCCc1cc(CNC2CCN(c3cc(C(C)C)nc(C)n3)CC2)on1,-4.25
11,CN(CCO)c1nc(-c2ccccn2)nc2c1CCNC2,-0.45
12,COCCN1CCO[C@H]2CCN(C(=O)c3cccs3)CC[C@@H]21,5.33
13,COc1nn(C)c2c1CCCN(C(=O)c1cccc(C)n1)C2,-2.8
14,C[C@@H]1CN(C(=O)c2ccc(C#N)nc2)C[C@@]1(O)C1CC1,13.9
15,CN(Cc1cc[nH]n1)C(=O)c1cn(Cc2c(F)cccc2F)nn1,-8.9
16,O=C(NCC1CCCO1)C1CCN(Cc2nc(C3CC3)no2)CC1 (configuration not stated),3.81
17,O=C(O)C(c1ccc2c(c1)OCCO2)N1CCSCC1 (configuration not stated),-3.24
18,COCCNC(=O)NCc1cccc(-n2ccnc2)c1,-13.7
19,CC1(C)CN(C(=O)Nc2ccc(Cn3cccn3)cc2)CCO1,-3.49
20,Cc1nc(CCNC2CCN(Cc3ccccc3)C2)sc1C (configuration not stated),-4.05
21,Cc1cc(C)nc(CN2CCOC(c3ccc(Cl)cc3)C2)n1 (configuration not stated),-1.88

row,Compound,cytotoxicity at 70.5 h [%]
1,NCCc1n[nH]c(=O)n1-c1cccc(Cl)c1Cl,-3.82
2,CCOc1ccnc(N2CCN(C(=O)CCc3ccsc3)CC2)n1,-7.66
3,Cc1cccc(N2CCC3(CCCN3Cc3c(C)nn(C)c3C)CC2)n1,-3.1
4,CCN1C(=O)CCC12CCCN(Cc1ccc(F)cc1)CC2 (configuration not stated),-9.34
5,O=C(O)Cc1nc2nccc(-c3ccc(F)cc3)n2n1,17.4
6,Cc1cc(C)nc(NCCC(=O)Nc2ccc(Cn3cncn3)cc2)n1,-9.08
7,CCc1cnc(CN(C)C2CCN(CC3CCC3)C2)o1 (configuration not stated),8.96
8,COC(=O)CCNC(=O)c1nnn(-c2ccc(F)cc2)c1C1CC1,-10.2
9,O=C(CN1CCN(C(=O)c2ccccc2)CC1)Nc1ccc(Br)cn1,-8.87
10,O=C(COCc1ccccc1)N1CCCn2cncc2C1,-4.83
11,CN(C)CC1(O)CCCN(C(=O)Cn2nc3ccccc3n2)CC1 (configuration not stated),11.1
12,CC1CCCCN1CCNC(=O)c1ccn(-c2cccc(F)c2)n1 (configuration not stated),-0.176
13,CCC1c2ccccc2CCN1C(=O)c1ccc(OC)nn1 (configuration not stated),-0.324
14,Cc1noc(C)c1C(=O)N1CCC2(CC1)CC(Oc1ccccc1)CO2 (configuration not stated),-3.84
15,CN(C)C(=O)CN1C[C@H]2CCN(C(=O)c3ccccc3)CC[C@H]2S1(=O)=O,-10.6
16,Cc1cnn(CCNCCCOc2ccc3c(c2)OCO3)c1,-0.972
17,CC(C)Oc1cccc(C(O)CNC(=O)NCc2cccs2)c1 (configuration not stated),3.68
18,Cc1ncc(CNCC(=O)NCC(F)(F)F)n1-c1ccccc1,-5.37
19,O=C(Cc1ccccc1)N1CCN(CC(O)c2ccc(F)cc2)CC1 (configuration not stated),-4.03
20,CCN(Cc1nc2c(cnn2C)c(=O)[nH]1)c1ccc(F)cc1,-3.68
21,Cn1cc(-c2nc(C(=O)N3CCCC3Cn3cccn3)cs2)cn1 (configuration not stated),-4.01

row,Compound,cytotoxicity at 70.5 h [%]
1,CCN(CC)Cc1cc(C(=O)N2CC(C)(C)[C@@](C)(O)C2)c(C)o1,8.35
2,COc1cccc(C2CCCN2C(=O)c2cc3c(nc2OC)CCC3)c1 (configuration not stated),-2.74
3,CC(=O)NCC(=O)N1CCC(c2cncc(Oc3cccnc3)n2)CC1,-9.15
4,CC(C)NC(=O)[C@H]1C[C@@H]2[C@@H](C1)OCCN2Cc1cccnc1,-2.77
5,NC(=O)NC1CCN(Cc2ccc(Br)c(F)c2)CC1,-5.43
6,CN1CCOCC12CCN(Cc1ccoc1)CC2,-13.2
7,CC1COCCN1C(=O)Cc1cc(Cl)c2c(c1)OCCO2 (configuration not stated),-12.3
8,CC(C)n1ccnc1C1CCN(Cc2ccc(C(F)(F)F)c(F)c2)CC1,23.4
9,Cc1nc(C)c(C(=O)N2CCCC2c2nnc3n2CCCCC3)s1 (configuration not stated),-8.07
10,Cc1ccc(NCCCNC(=O)C2CCCN(Cc3ccco3)C2)nc1 (configuration not stated),7.19
11,COCC(=O)N1CCc2cccc(S(=O)(=O)N3CCOCC3)c2C1,-6.37
12,CN(C)C(=O)C1OC2(CCN(c3ncc(F)cn3)CC2)c2ccccc21 (configuration not stated),3.5
13,Cc1ccc(CN(C)C(=O)NCC(C)(C)NS(C)(=O)=O)s1,-3.9
14,O=C1NC[C@H]2CN(Cc3nccs3)CCN12,-8.47
15,CC(C(=O)N(Cc1ccc(C#N)cc1)CC(F)(F)F)S(C)(=O)=O (configuration not stated),-10.1
16,O=C(Nc1ccnc(OC2CCOC2)c1)C1CCC1 (configuration not stated),-2.33
17,O=C(c1ccccc1)N1C[C@@H]2CCCO[C@@H]2[C@H](N2CCOCC2)C1,1.03
18,CCc1ccc(C(=O)N2CCN(Cc3ccc(F)cc3)CC2)s1,4.63
19,CCOC(=O)CCN(Cc1cccnc1)C(=O)c1cc(Cl)c[nH]1,-6.02
20,CC(=O)c1cc(Br)cc(F)c1OCC(=O)NC1CC1,0.481
21,Cc1ccc(N2CCCN(C(=O)c3n[nH]c4c3CCC4)CC2)nn1,1.32

row,Compound,cytotoxicity at 70.5 h [%]
1,CC(C)Cc1nc(-c2ccnc(N3CCNCC3)n2)no1,-7.21
2,Cc1nn(CCO)c(C)c1CNC1CCc2c(F)cccc21 (configuration not stated),0.27
3,Cc1cccc(OC2CCN(C(=O)c3ccc4ncsc4c3)CC2)n1,0.229
4,COc1nc2c(cc1C(=O)N1CCCOC(Cn3cccn3)C1)CCC2 (configuration not stated),-2.14
5,O=C(NCc1ccco1)[C@H]1C[C@H]2OCC[C@H]2N(C(=O)c2ccnnc2)C1,-12.6
6,COc1cc(CNc2cc(N3CCCC3CO)ncn2)ccn1 (configuration not stated),24.7
7,COCC(=O)N[C@H](C)c1c(-c2ccc(OC)cc2)noc1C(=O)O,-16.4
8,CN(Cc1cccs1)C(=O)CN1CCOC(Cn2cncn2)C1 (configuration not stated),17.4
9,CN1CCC(NC(=O)c2cc(Br)cc(Cl)c2O)C1=O (configuration not stated),-1.22
10,Cc1cc(CN(C)Cc2ncc(-c3ccccc3)o2)no1,-0.145
11,CN1CCN(C(=O)c2n[nH]c3c2CN(Cc2nccs2)CC3)CC1,-12
12,O=S(=O)(C1CC1)N1CCn2cc(CNc3ccccn3)nc2C1,-0.935
13,Cc1nnc(NC(=O)CN2CCc3nn(C(C)C)c(=O)cc3C2)s1,-6.14
14,COc1cc(C(=O)N2CCC(c3n[nH]c(C4CC4)n3)CC2)ccc1C,36.5
15,CC(=O)CCC(=O)N1CCC2(CC1)N=C(CCC(C)C)NC2=O,-0.28
16,CCCNC(=O)CCC(=O)n1nc(C)c2ccccc21,1.02
17,CN(C)S(=O)(=O)c1ccc(OCCNCCn2cccn2)cc1,33.7
18,COc1ccc(OC)c(CN2CCN(Cc3cscn3)CC2)c1,-5.74
19,CCS(=O)(=O)CCN1CCCC1c1noc(C2CC2)n1 (configuration not stated),27

# From ChEMBL document CHEMBL3507680, “University of Dundee, Gates Library screen for HepG2 cell viability”
